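GI50: concentration for 50% inhibition of growth. TGI denotes the concentration required for complete inhibition of growth.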
Assays:
Test in all cases: DTP human tumour cell line panel, 384-well format
NCI-H23 lung = tested on: NCI-H23 lung
UACC-257 melanoma = tested on: UACC-257 melanoma
HS 578T breast = tested on: HS 578T breast
HT29 colon = tested on: HT29 colon
DU-145 prostate = tested on: DU-145 prostate
CAKI-1 renal = tested on: CAKI-1 renal
HOP-92 NSCLC = tested on: HOP-92 NSCLC
BT-549 breast = tested on: BT-549 breast
HL-60(TB) leukemia = tested on: HL-60(TB) leukemia
NCI/ADR-RES ovarian = tested on: NCI/ADR-RES ovarian
MOLT-4 leukemia = tested on: MOLT-4 leukemia
MDA-MB-435 melanoma = tested on: MDA-MB-435 melanoma
NCI-H522 lung = tested on: NCI-H522 lung
SN12C renal = tested on: SN12C renal
NCI-H322M lung = tested on: NCI-H322M lung
LOX IMVI melanoma = tested on: LOX IMVI melanoma
SK-OV-3 ovarian = tested on: SK-OV-3 ovarian
T-47D breast = tested on: T-47D breast
OVCAR-3 ovarian = tested on: OVCAR-3 ovarian
RXF 393 renal = tested on: RXF 393 renal
NCI-H460 NSCLC = tested on: NCI-H460 NSCLC
RPMI-8226 leukemia = tested on: RPMI-8226 leukemia
OVCAR-8 ovarian = tested on: OVCAR-8 ovarian
NCI-H226 lung = tested on: NCI-H226 lung
CCRF-CEM leukemia = tested on: CCRF-CEM leukemia
U251 glioblastoma = tested on: U251 glioblastoma
786-0 renal = tested on: 786-0 renal
MCF7 breast = tested on: MCF7 breast
KM12 colon = tested on: KM12 colon
SK-MEL-28 melanoma = tested on: SK-MEL-28 melanoma
A498 renal = tested on: A498 renal
MDA-MB-468 breast = tested on: MDA-MB-468 breast
OVCAR-4 ovarian = tested on: OVCAR-4 ovarian
SF-539 CNS = tested on: SF-539 CNS
OVCAR-5 ovarian = tested on: OVCAR-5 ovarian
SW-620 colon = tested on: SW-620 colon
HCC-2998 colon = tested on: HCC-2998 colon
SNB-75 CNS = tested on: SNB-75 CNS
COLO 205 colon = tested on: COLO 205 colon
MDA-MB-231 breast = tested on: MDA-MB-231 breast
UO-31 renal = tested on: UO-31 renal
UACC-62 melanoma = tested on: UACC-62 melanoma
IGROV1 ovarian = tested on: IGROV1 ovarian
M14 melanoma = tested on: M14 melanoma
SK-MEL-5 melanoma = tested on: SK-MEL-5 melanoma
K-562 leukemia = tested on: K-562 leukemia
PC-3 prostate = tested on: PC-3 prostate
EKVX NSCLC = tested on: EKVX NSCLC
HOP-62 NSCLC = tested on: HOP-62 NSCLC
HCT-15 colon = tested on: HCT-15 colon
HCT-116 colon = tested on: HCT-116 colon
A549 NSCLC = tested on: A549 NSCLC
TK-10 renal = tested on: TK-10 renal
SF-295 CNS = tested on: SF-295 CNS
ACHN renal = tested on: ACHN renal
SNB-19 CNS = tested on: SNB-19 CNS
SF-268 CNS = tested on: SF-268 CNS

Compound: C[C@H](O)C(=O)N1CCC(CCn2c(Sc3cc4c(cc3Br)OCO4)nc3c(N)ncnc32)CC1
- GI50 (NCI-H23 lung): 214 nM
- TGI (NCI-H23 lung): 640 nM
- GI50 (UACC-257 melanoma): 4380 nM
- TGI (UACC-257 melanoma): 31000 nM
- GI50 (HS 578T breast): 327 nM
- TGI (HS 578T breast): 2220 nM
- GI50 (HT29 colon): 337 nM
- TGI (HT29 colon): 20300 nM
- GI50 (DU-145 prostate): 420 nM
- TGI (DU-145 prostate): 13800 nM
- GI50 (CAKI-1 renal): 657 nM
- TGI (CAKI-1 renal): 88800 nM
- GI50 (HOP-92 NSCLC): 624 nM
- TGI (HOP-92 NSCLC): 2370 nM
- GI50 (BT-549 breast): 410 nM
- TGI (BT-549 breast): 2820 nM
- GI50 (HL-60(TB) leukemia): 248 nM
- TGI (HL-60(TB) leukemia): 523 nM
- GI50 (NCI/ADR-RES ovarian): 9820 nM
- TGI (NCI/ADR-RES ovarian): 35500 nM
- GI50 (MOLT-4 leukemia): 122 nM
- TGI (MOLT-4 leukemia): 268 nM
- GI50 (MDA-MB-435 melanoma): 1270 nM
- TGI (MDA-MB-435 melanoma): > 100000 nM
- GI50 (NCI-H522 lung): 203 nM
- TGI (NCI-H522 lung): 410 nM
- GI50 (SN12C renal): 333 nM
- TGI (SN12C renal): 1840 nM
- GI50 (NCI-H322M lung): 593 nM
- TGI (NCI-H322M lung): 58100 nM
- GI50 (LOX IMVI melanoma): 327 nM
- TGI (LOX IMVI melanoma): 1070 nM
- GI50 (SK-OV-3 ovarian): 827 nM
- TGI (SK-OV-3 ovarian): 76600 nM
- GI50 (T-47D breast): 344 nM
- TGI (T-47D breast): 1500 nM
- GI50 (OVCAR-3 ovarian): 405 nM
- TGI (OVCAR-3 ovarian): 3270 nM
- GI50 (RXF 393 renal): 346 nM
- TGI (RXF 393 renal): 26000 nM
- GI50 (NCI-H460 NSCLC): 275 nM
- TGI (NCI-H460 NSCLC): 745 nM
- GI50 (RPMI-8226 leukemia): 472 nM
- TGI (RPMI-8226 leukemia): 2530 nM
- GI50 (OVCAR-8 ovarian): 272 nM
- TGI (OVCAR-8 ovarian): 707 nM
- GI50 (NCI-H226 lung): 568 nM
- TGI (NCI-H226 lung): 7660 nM
- GI50 (CCRF-CEM leukemia): 229 nM
- TGI (CCRF-CEM leukemia): 783 nM
- GI50 (U251 glioblastoma): 395 nM
- TGI (U251 glioblastoma): 1450 nM
- GI50 ([…]-0 renal): 607 nM
- TGI (786-0 renal): > 100000 nM
- GI50 (MCF7 breast): 286 nM
- TGI (MCF7 breast): 2810 nM
- GI50 (KM12 colon): 318 nM
- TGI (KM12 colon): 10900 nM
- GI50 (SK-MEL-28 melanoma): 589 nM
- TGI (SK-MEL-28 melanoma): 31200 nM
- GI50 (A498 renal): 901 nM
- TGI (A498 renal): > 100000 nM
- GI50 (MDA-MB-468 breast): 294 nM
- TGI (MDA-MB-468 breast): 743 nM
- GI50 (OVCAR-4 ovarian): 17300 nM
- TGI (OVCAR-4 ovarian): > 100000 nM
- GI50 (SF-539 CNS): 223 nM
- TGI (SF-539 CNS): 442 nM
- GI50 (OVCAR-5 ovarian): 723 nM
- TGI (OVCAR-5 ovarian): > 100000 nM
- GI50 (SW-620 colon): 303 nM
- TGI (SW-620 colon): 2550 nM
- GI50 (HCC-2998 colon): 127 nM
- TGI (HCC-2998 colon): 478 nM
- GI50 (SNB-75 CNS): 1490 nM
- TGI (SNB-75 CNS): 7220 nM
- GI50 (COLO 205 colon): 291 nM
- TGI (COLO 205 colon): 1840 nM
- GI50 (MDA-MB-231 breast): 537 nM
- TGI (MDA-MB-231 breast): 7360 nM
- GI50 (UO-31 renal): 680 nM
- TGI (UO-31 renal): 58800 nM
- GI50 (UACC-62 melanoma): 534 nM
- TGI (UACC-62 melanoma): 3070 nM
- GI50 (IGROV1 ovarian): 299 nM
- TGI (IGROV1 ovarian): 1740 nM
- GI50 (M14 melanoma): 361 nM
- TGI (M14 melanoma): 11800 nM
- GI50 (SK-MEL-5 melanoma): 335 nM
- TGI (SK-MEL-5 melanoma): 19600 nM
- GI50 (K-562 leukemia): 271 nM
- TGI (K-562 leukemia): 4700 nM
- GI50 (PC-3 prostate): 655 nM
- TGI (PC-3 prostate): 4010 nM
- GI50 (EKVX NSCLC): 649 nM
- TGI (EKVX NSCLC): 25100 nM
- GI50 (HOP-62 NSCLC): 582 nM
- TGI (HOP-62 NSCLC): 27800 nM
- GI50 (HCT-15 colon): 757 nM
- TGI (HCT-15 colon): 15600 nM
- GI50 (HCT-116 colon): 518 nM
- TGI (HCT-116 colon): > 100000 nM
- GI50 (A549 NSCLC): 318 nM
- TGI (A549 NSCLC): > 100000 nM
- GI50 (TK-10 renal): 522 nM
- TGI (TK-10 renal): 23300 nM
- GI50 (SF-295 CNS): 433 nM
- TGI (SF-295 CNS): 1700 nM
- GI50 (ACHN renal): 574 nM
- TGI (ACHN renal): > 100000 nM
- GI50 (SNB-19 CNS): 694 nM
- TGI (SNB-19 CNS): > 100000 nM
- GI50 (SF-268 CNS): 174 nM
- TGI (SF-268 CNS): 494 nM
